What was measured:
ACHN [1] = assay: Growth inhibition of human ACHN cells assessed as cell growth at 100 uM after 48 hrs by SRB assay relative to control; format: functional; settings: read-out: Activity
U-251 = assay: Cytotoxicity against human U251 cells assessed as growth inhibition after 48 hrs by SRB assay; format: functional; settings: U-251, 48 h
MDA-MB-468 = assay: Growth inhibition of human MDA-MB-468 cells assessed as cell growth at 1 uM after 48 hrs by SRB assay relative to control; format: functional; settings: MDA-MB-468, 48 h, read-out: Activity
SW-620 [2] = assay: Growth inhibition of human SW620 cells assessed as cell growth at 0.1 uM after 48 hrs by SRB assay relative to control; format: functional; settings: SW-620, 48 h, read-out: Activity
SF-268 = assay: Growth inhibition of human SF268 cells assessed as cell growth at 100 uM after 48 hrs by SRB assay relative to control; format: functional; settings: SF-268, 48 h, read-out: Activity
Tubulin = Tubulin (Bos taurus, UniProt Q6B856+Q862L2+Q862F3); assay: Inhibition of bovine brain tubulin polymerization measured every 1 min for 60 mins by turbidimetry based microplate reader analysis
MCF7 [3] = assay: Growth inhibition of human MCF7 cells assessed as cell growth at 0.1 uM after 48 hrs by SRB assay relative to control; format: functional; settings: MCF7, 48 h, read-out: Activity
NCI-H322M = assay: Cytotoxicity against human NCI-H322M cells assessed as growth inhibition after 48 hrs by SRB assay; format: functional
K562 = assay: Growth inhibition of human K562 cells assessed as cell growth at 10 uM after 48 hrs by SRB assay relative to control; format: functional; settings: K562, 48 h, read-out: Activity
SW-620 [4] = assay: Growth inhibition of human SW620 cells assessed as cell growth at 100 uM after 48 hrs by SRB assay relative to control; format: functional; settings: SW-620, 48 h, read-out: Activity
SN12C = assay: Cytotoxicity against human SN12C cells assessed as growth inhibition after 48 hrs by SRB assay; format: functional
T47D = assay: Growth inhibition of human T47D cells assessed as cell growth at 10 uM after 48 hrs by SRB assay relative to control; format: functional; settings: read-out: Activity
NCI-H23 = assay: Cytotoxicity against human NCI-H23 cells assessed as growth inhibition after 48 hrs by SRB assay; format: functional; settings: NCI-H23, 48 h
Malme-3M = assay: Growth inhibition of human MALME-3M cells assessed as cell growth at 0.01 uM after 48 hrs by SRB assay relative to control; format: functional; settings: read-out: Activity
SK-MEL-2 = assay: Growth inhibition of human SK-MEL-2 cells assessed as cell growth at 0.01 uM after 48 hrs by SRB assay relative to control; format: functional; settings: SK-MEL-2, 48 h, read-out: Activity
Hs-578T [5] = assay: Growth inhibition of human Hs 578T cells assessed as cell growth at 0.01 uM after 48 hrs by SRB assay relative to control; format: functional; settings: read-out: Activity
A498 = assay: Growth inhibition of human A498 cells assessed as cell growth at 0.1 uM after 48 hrs by SRB assay relative to control; format: functional; settings: A498, 48 h, read-out: Activity
MCF7 [6] = assay: Growth inhibition of human MCF7 cells assessed as cell growth at 100 uM after 48 hrs by SRB assay relative to control; format: functional; settings: MCF7, 48 h, read-out: Activity
RXF 393 = assay: Growth inhibition of human RXF393 cells assessed as cell growth at 1 uM after 48 hrs by SRB assay relative to control; format: functional; settings: RXF 393, 48 h, read-out: Activity
SNB-19 = assay: Growth inhibition of human SNB19 cells assessed as cell growth at 10 uM after 48 hrs by SRB assay relative to control; format: functional; settings: SNB-19, 48 h, read-out: Activity
MOLT-4 [7] = assay: Growth inhibition of human MOLT4 cells assessed as cell growth at 10 uM after 48 hrs by SRB assay relative to control; format: functional; settings: MOLT-4, 48 h, read-out: Activity
COLO 205 = assay: Cytotoxicity against human COLO205 cells assessed as growth inhibition after 48 hrs by SRB assay; format: functional; settings: COLO 205, 48 h
Hs-578T [8] = assay: Growth inhibition of human Hs 578T cells assessed as cell growth at 0.1 uM after 48 hrs by SRB assay relative to control; format: functional; settings: read-out: Activity
RPMI-8226 = assay: Growth inhibition of human RPMI8226 cells assessed as cell growth at 0.1 uM after 48 hrs by SRB assay relative to control; format: functional; settings: RPMI-8226, 48 h, read-out: Activity
NCI-H522 = assay: Growth inhibition of human NCI-H522 cells assessed as cell growth at 0.1 uM after 48 hrs by SRB assay relative to control; format: functional; settings: NCI-H522, 48 h, read-out: Activity
NCI/ADR-RES = assay: Growth inhibition of human NCI-ADR-RES cells assessed as cell growth at 10 uM after 48 hrs by SRB assay relative to control; format: functional; settings: read-out: Activity
A549 = assay: Growth inhibition of human A549/ATCC cells assessed as cell growth at 10 uM after 48 hrs by SRB assay relative to control; format: functional; settings: A549, 48 h, read-out: Activity
SK-MEL-28 = assay: Growth inhibition of human SK-MEL-28 cells assessed as cell growth at 10 uM after 48 hrs by SRB assay relative to control; format: functional; settings: SK-MEL-28, 48 h, read-out: Activity
786-0 = assay: Growth inhibition of human 786-0 cells assessed as cell growth at 100 uM after 48 hrs by SRB assay relative to control; format: functional; settings: 786-0, 48 h, read-out: Activity
ACHN [9] = assay: Growth inhibition of human ACHN cells assessed as cell growth at 0.1 uM after 48 hrs by SRB assay relative to control; format: functional; settings: read-out: Activity
MOLT-4 [10] = assay: Growth inhibition of human MOLT4 cells assessed as cell growth at 1 uM after 48 hrs by SRB assay relative to control; format: functional; settings: MOLT-4, 48 h, read-out: Activity
[11] = read-out: LC50 (the source's name)
[12] = read-out: pLC50 (the source's name) (converted)

**Q.** How did the growth at 100 µM (ACHN [1]) turn out when `COc1ccc2c(c1)CCc1n[nH]c(-c3cc(OC)c(OC)c(OC)c3)c1-2` was run?
**A.** -29%

**Q.** And the GI50 (U-251; read-out: GI50)?
**A.** < 0.01 µM

**Q.** And the CC50 (U-251; [11])?
**A.** 51.3 µM

**Q.** What about the TGI (U-251; read-out: TGI) of the same molecule?
**A.** 11.5 µM

**Q.** And the GI50 (U-251; read-out: pGI50 (converted))?
**A.** < 0.01 µM

**Q.** What about the CC50 (U-251; [12]) of the same molecule?
**A.** 51.3 µM

**Q.** What about the TGI (U-251; read-out: pTGI (converted)) of the same molecule?
**A.** 11.5 µM

**Q.** And the growth at 1 µM (MDA-MB-468)?
**A.** -1%

**Q.** And the growth at 0.1 µM (SW-620 [2])?
**A.** 18%

**Q.** What about the growth at 100 µM (SF-268) of the same molecule?
**A.** -25%

**Q.** What about the IC50 (Tubulin) of the same molecule?
**A.** 3.4 µM

**Q.** And the growth at 0.1 µM (MCF7 [3])?
**A.** 14%

**Q.** What about the GI50 (NCI-H322M; read-out: GI50) of the same molecule?
**A.** < 0.01 µM

**Q.** And the CC50 (NCI-H322M; [11])?
**A.** > 100 µM

**Q.** What about the TGI (NCI-H322M; read-out: TGI) of the same molecule?
**A.** 39.5 µM

**Q.** What about the GI50 (NCI-H322M; read-out: pGI50 (converted)) of the same molecule?
**A.** < 0.01 µM

**Q.** What about the CC50 (NCI-H322M; [12]) of the same molecule?
**A.** > 100 µM

**Q.** What about the TGI (NCI-H322M; read-out: pTGI (converted)) of the same molecule?
**A.** 39.8 µM

**Q.** And the growth at 10 µM (K562)?
**A.** 17%

**Q.** And the growth at 100 µM (SW-620 [4])?
**A.** -75%

**Q.** And the GI50 (SN12C; read-out: GI50)?
**A.** < 0.01 µM

**Q.** What about the CC50 (SN12C; [11]) of the same molecule?
**A.** > 100 µM

**Q.** And the TGI (SN12C; read-out: TGI)?
**A.** 22 µM

**Q.** What about the GI50 (SN12C; read-out: pGI50 (converted)) of the same molecule?
**A.** < 0.01 µM

**Q.** And the CC50 (SN12C; [12])?
**A.** > 100 µM

**Q.** And the TGI (SN12C; read-out: pTGI (converted))?
**A.** 21.9 µM

**Q.** What about the growth at 10 µM (T47D) of the same molecule?
**A.** 35%

**Q.** What about the GI50 (NCI-H23; read-out: GI50) of the same molecule?
**A.** < 0.01 µM

**Q.** And the CC50 (NCI-H23; [11])?
**A.** > 100 µM

**Q.** And the TGI (NCI-H23; read-out: TGI)?
**A.** 3.53 µM

**Q.** And the GI50 (NCI-H23; read-out: pGI50 (converted))?
**A.** < 0.01 µM

**Q.** And the CC50 (NCI-H23; [12])?
**A.** > 100 µM

**Q.** And the TGI (NCI-H23; read-out: pTGI (converted))?
**A.** 3.55 µM

**Q.** And the growth at 0.01 µM (Malme-3M)?
**A.** 46%

**Q.** What about the growth at 0.01 µM (SK-MEL-2) of the same molecule?
**A.** 39%

**Q.** And the growth at 0.01 µM (Hs-578T [5])?
**A.** 14%

**Q.** And the growth at 0.1 µM (A498)?
**A.** -15%

**Q.** And the growth at 100 µM (MCF7 [6])?
**A.** -38%

**Q.** And the growth at 1 µM (RXF 393)?
**A.** 6%

**Q.** What about the growth at 10 µM (SNB-19) of the same molecule?
**A.** 24%

**Q.** And the growth at 10 µM (MOLT-4 [7])?
**A.** 31%

**Q.** And the GI50 (COLO 205; read-out: GI50)?
**A.** < 0.01 µM

**Q.** What about the CC50 (COLO 205; [11]) of the same molecule?
**A.** 0.249 µM

**Q.** And the TGI (COLO 205; read-out: TGI)?
**A.** < 0.01 µM

**Q.** What about the GI50 (COLO 205; read-out: pGI50 (converted)) of the same molecule?
**A.** < 0.01 µM

**Q.** And the CC50 (COLO 205; [12])?
**A.** 0.251 µM

**Q.** What about the TGI (COLO 205; read-out: pTGI) of the same molecule?
**A.** < 0.01 µM

**Q.** And the growth at 0.1 µM (Hs-578T [8])?
**A.** 17%

**Q.** And the growth at 0.1 µM (RPMI-8226)?
**A.** 51%

**Q.** What about the growth at 0.1 µM (NCI-H522) of the same molecule?
**A.** -18%

**Q.** What about the growth at 10 µM (NCI/ADR-RES) of the same molecule?
**A.** -11%

**Q.** And the growth at 10 µM (A549)?
**A.** 11%

**Q.** What about the growth at 10 µM (SK-MEL-28) of the same molecule?
**A.** 34%

**Q.** And the growth at 100 µM (786-0)?
**A.** -48%

**Q.** And the growth at 0.1 µM (ACHN [9])?
**A.** 27%

**Q.** And the growth at 1 µM (MOLT-4 [10])?
**A.** 36%

Reference: ChEMBL document CHEMBL4346757, “Synthesis and biological evaluation of 7-methoxy-1-(3,4,5-trimethoxyphenyl)-4,5-dihydro-2H-benzo[e]indazoles as new colchicine site inhibitors” (Bioorg Med Chem Lett, 2019)
